Experiment [1] has as its target HSV-1 ribonucleotide reductase (Human alphaherpesvirus 1 strain 17, UniProt P08543+P10224). Kind of experiment: Inhibition of HSV-1 ribonucleotide reductase (reduction of CDP). The experiment is classed as biochemical, herpes simplex virus (type 1), strain F. To be noted: for selective inhibition of the viral ribonucleotide reductase over the cellular ribonucleotide reductase: HSV-1 versus hamster 96-V-2(600) ribonucleotide reductase.

For experiment [2], the target named is T1, Hamster 96-V-2(600) ribonucleotide reductase (Cricetulus griseus, UniProt G3I2K8+G3I3B7).
T1 construct: overproducing strain; endogenous in cells; host or cells: 96-V-2(600), overproducing strain of a Chinese hamster lung cell line (partially purified)
T1 sequence (G3I3B7 entry or part of it): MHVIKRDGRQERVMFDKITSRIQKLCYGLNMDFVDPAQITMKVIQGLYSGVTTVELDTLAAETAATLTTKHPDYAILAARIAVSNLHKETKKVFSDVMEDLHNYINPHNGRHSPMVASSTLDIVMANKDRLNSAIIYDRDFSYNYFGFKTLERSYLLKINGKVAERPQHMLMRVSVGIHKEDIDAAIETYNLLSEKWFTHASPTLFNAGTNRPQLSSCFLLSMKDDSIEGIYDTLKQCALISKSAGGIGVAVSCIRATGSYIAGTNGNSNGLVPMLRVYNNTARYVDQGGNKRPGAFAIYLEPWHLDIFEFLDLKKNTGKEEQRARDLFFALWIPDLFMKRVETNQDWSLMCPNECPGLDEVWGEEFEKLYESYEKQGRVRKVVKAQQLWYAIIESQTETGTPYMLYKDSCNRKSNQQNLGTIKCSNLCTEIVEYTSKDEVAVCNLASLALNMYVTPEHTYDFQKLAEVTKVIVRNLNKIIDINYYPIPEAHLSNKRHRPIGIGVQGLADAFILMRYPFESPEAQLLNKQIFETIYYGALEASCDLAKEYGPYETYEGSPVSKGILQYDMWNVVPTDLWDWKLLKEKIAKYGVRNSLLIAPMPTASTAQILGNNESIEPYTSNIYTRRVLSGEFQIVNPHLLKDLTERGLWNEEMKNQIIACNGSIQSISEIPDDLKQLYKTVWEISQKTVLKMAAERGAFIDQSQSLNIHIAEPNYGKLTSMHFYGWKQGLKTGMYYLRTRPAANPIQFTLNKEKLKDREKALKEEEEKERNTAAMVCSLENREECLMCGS
T1 sequence (G3I2K8 entry or part of it): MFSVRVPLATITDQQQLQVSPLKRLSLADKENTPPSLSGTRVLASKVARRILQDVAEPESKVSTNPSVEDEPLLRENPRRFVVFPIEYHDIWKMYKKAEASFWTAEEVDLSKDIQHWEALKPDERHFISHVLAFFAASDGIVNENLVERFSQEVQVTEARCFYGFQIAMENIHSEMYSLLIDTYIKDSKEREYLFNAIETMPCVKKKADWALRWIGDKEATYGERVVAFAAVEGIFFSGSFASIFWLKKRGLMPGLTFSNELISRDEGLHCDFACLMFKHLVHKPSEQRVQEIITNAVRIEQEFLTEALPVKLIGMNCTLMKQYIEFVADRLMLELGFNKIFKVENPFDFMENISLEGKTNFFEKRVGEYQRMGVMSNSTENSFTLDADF
The experiment can be described thus: Inhibition of hamster 96-V-2(600) ribonucleotide reductase (reduction of CDP). In kind it is biochemical, Chinese hamster. The conditions noted are these: partially purified enzyme 40 μg, in the presence of adenosine triphosphate (4 mM) and magnesium chloride (11.5 mM). How it is done:
Hamster 96-V-2(600) ribonucleotide reductase (partially purified) was obtained from an overproducting strain of a Chinese hamster lung cell line as described by W. H. Lewis and P. R. Scinivasan, Mol. Cell Biol., 3, 1053 (1983).
Samples of the HSV-1 ribonucleotide reductase (65 μg with a specific activity of 26 units per mg) were mixed with increasing concentrations of the test compound, i.e. the naphthalene noted in the title of this example, in a series of tubes. Ribonucleotide reductase activity was assayed by monitoring the reduction of cytidine diphosphate (CDP) as described by Cohen et al., supra. The standard reaction mixture, in a final volume of 60 μl, contained: 50 mM, N-2-hydroxyethylpiperazine-N'-2-ethanesulfonic acid (pH 7.8); 4 mM NaF, 30 mM DL-dithiothreitol (DTT); 1 mM bacitracin, 54 μM CDP and 0.25 μCi of [^3 H]CDP. After 30 minutes of incubation at 37° C., the reaction was stopped by immersing the tube in boiling water for 4 minutes. The precipitate was removed by centrifugation. Nucleotides in the supernatant were converted to nucleosides by enzymatic hydrolysis. The deoxyribonucleosides were subsequently separated from the ribonucleosides by ascending polyethyleneimine-celulose chromatography. […] The results, shown in FIG. 1, are expressed as a percentage of the activity obtained in the controls.

Results on three molecules are retold here after patent publication US5242946A, “Treating herpes Viral infections” (Bio-Mega, Inc., priority 1988, dated 1993).

Chain of HSV-1 ribonucleotide reductase (P10224 whole entry): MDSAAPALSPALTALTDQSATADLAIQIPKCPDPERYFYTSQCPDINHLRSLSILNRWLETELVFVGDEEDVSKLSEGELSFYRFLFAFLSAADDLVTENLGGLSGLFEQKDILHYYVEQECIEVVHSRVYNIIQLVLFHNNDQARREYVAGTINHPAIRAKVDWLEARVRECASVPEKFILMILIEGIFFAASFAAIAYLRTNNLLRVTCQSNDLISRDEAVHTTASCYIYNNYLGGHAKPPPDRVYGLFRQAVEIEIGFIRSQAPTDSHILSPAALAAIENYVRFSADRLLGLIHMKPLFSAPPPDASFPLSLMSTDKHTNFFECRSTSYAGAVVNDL
Chain of HSV-1 ribonucleotide reductase (P08543 whole entry): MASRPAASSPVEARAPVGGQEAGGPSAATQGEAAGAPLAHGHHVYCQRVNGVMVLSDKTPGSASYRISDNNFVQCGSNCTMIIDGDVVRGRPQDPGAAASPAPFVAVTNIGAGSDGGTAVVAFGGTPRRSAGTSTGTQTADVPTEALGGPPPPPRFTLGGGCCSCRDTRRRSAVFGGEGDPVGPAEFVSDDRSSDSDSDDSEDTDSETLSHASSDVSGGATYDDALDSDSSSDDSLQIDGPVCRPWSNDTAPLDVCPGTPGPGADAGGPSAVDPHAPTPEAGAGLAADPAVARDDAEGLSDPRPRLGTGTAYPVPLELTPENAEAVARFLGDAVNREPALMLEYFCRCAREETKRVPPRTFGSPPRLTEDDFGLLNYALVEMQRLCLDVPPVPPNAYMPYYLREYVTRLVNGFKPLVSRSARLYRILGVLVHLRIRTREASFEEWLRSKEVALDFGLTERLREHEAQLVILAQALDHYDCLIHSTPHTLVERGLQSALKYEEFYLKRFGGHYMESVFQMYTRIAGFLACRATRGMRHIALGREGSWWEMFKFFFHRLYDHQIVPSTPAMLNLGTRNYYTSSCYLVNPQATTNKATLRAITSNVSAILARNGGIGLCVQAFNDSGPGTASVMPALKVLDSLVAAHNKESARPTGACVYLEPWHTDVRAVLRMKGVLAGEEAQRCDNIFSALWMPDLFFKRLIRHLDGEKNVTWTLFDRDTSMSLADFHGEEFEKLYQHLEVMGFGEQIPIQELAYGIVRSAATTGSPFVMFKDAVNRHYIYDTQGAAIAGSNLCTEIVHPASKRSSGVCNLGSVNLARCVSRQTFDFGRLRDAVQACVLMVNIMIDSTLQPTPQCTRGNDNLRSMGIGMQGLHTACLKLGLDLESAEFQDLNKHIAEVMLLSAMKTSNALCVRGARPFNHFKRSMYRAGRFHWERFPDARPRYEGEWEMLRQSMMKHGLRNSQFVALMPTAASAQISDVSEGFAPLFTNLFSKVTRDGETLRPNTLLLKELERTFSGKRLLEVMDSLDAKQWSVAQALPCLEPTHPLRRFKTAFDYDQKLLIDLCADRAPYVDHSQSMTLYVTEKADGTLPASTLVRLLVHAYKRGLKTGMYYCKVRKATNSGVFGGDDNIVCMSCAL

As to `COc1c(OC)c(OC(C)=O)c2cc(Cl)ccc2c1OC(C)=O` [6-Chloro-2,3-dimethoxy-1,4-naphthalenediol diacetate], the “selective inhibition of the viral ribonucleotide reductase over the cellular ribonucleotide reductase” value in experiment [1] was “selective inhibition”. Besides, the IC50 in experiment [1] (partially purified enzyme 65 μg, 54 μM CDP, 30 minutes at 37° C., pH 7.8, read-out: IC50, fifty percent reduction of the HSV-1 ribonucleotide reductase activity) is 31 µM; in experiment [2] it was above 250 µM. As for `COc1c(OC)c(OC(C)=O)c2ccccc2c1OC(C)=O` [2,3-dimethoxy-1,4-1,4-naphthalenediol diacetate], the “selective inhibition of the viral ribonucleotide reductase over the cellular ribonucleotide reductase” value in experiment [1] is given as “selective inhibition”. As to `COc1ccc2c(OC(C)=O)c(OC)c(OC)c(OC(C)=O)c2c1` [2,3,6-trimetoxy-1,4-naphthalenediol diacetate], in experiment [1], the “selective inhibition of the viral ribonucleotide reductase over the cellular ribonucleotide reductase” value is recorded as “selective inhibition”.

As usually defined, the IC50 is the concentration needed to halve the response being measured.
